{"source": "patent US20250000834A1", "about": "“COMPOSITIONS AND METHODS FOR TARGETING GPCR FOR THE PREVENTION AND TREATMENT OF PAIN” (Duke University, priority 2021, published 2025)", "key": {"GPR37L1 [1]": {"molecular_target": "T1, GPR37L1 (Mus musculus, UniProt Q99JG2)", "T1 construct": "from tissue; host or cells: mouse dorsal root ganglia (DRG)", "T1 sequence (Q99JG2 25-481)": "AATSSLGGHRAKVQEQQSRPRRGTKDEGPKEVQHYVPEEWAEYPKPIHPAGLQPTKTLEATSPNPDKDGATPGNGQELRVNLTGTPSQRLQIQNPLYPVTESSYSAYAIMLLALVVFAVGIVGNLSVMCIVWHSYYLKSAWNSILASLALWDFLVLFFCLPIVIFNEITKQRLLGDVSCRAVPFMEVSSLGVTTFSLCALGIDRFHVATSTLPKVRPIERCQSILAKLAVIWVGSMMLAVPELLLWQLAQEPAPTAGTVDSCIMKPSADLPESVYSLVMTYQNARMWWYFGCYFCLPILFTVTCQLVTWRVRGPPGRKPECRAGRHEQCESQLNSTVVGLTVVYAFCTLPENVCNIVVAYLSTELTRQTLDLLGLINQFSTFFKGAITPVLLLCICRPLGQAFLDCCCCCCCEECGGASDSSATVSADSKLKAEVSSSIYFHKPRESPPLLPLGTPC", "assay": "Lipid overlay assay on MaR1-coated PVDF membrane with mouse DRG lysates", "assay_type": "binding", "conditions": "WT DRG lysate; MaR1 coated at 10 nM", "description": "(§1) Lipids overlay assay: Lipids membrane coating and protein overlay assay were performed as previously described (S. Dowler, et al., Protein lipid overlay assay. Sci STKE 2002, p 16 (2002)). […] Compound-coated membranes were dried and blocked with 1% BSA. The coated membranes were incubated with lysates obtained from hGPR37L1-transfected HEK293 cells or mouse DRG lysate from WT or Gpr37l1 KO mice for 2 hours, followed by detection using an anti-GRP37L1 antibody (Bioss (Woburn, MA), Rabbit, 1:1000, #bs-15390R) or anti-flag antibody (Cell Signaling Technology (Danvers, MA), Rabbit, 1:1000, #14793). Blots were further incubated with an HRP-conjugated secondary anti-rabbit antibody (Jackson ImmunoResearch Laboratories (West Grove, PA), raised in donkey, 1:5000), developed in ECL solution (Pierce Biotechnology, Waltham, MA), and the signal was visualized from ChemiDoc XRS (Bio-Rad, Hercules, CA). The signal Intensity was quantified by Image J software (NIH).\n(§2) To confirm whether DRG-expressed GPR37L1 would also interact with MaR1, a lipid overlay assay was performed on MaR1-coated PVDF membrane using DRG lysates from WT or Gpr37l1 KO mice. To determine dose-dependent binding, MaR1 was coated at the concentrations of 0.01 nM, 0.1 nM, 1 nM, and 10 nM."}, "GPR37L1 [2]": {"test_system": "GPR37L1", "assay": "Lipid overlay assay on MaR1-coated PVDF membrane with mouse DRG lysates", "assay_type": "binding", "conditions": "Gpr37l1 KO DRG lysate", "description": "as §1, §2"}, "[3]": {"test_system": "PTX-induced mechanical allodynia in mice", "assay": "Paclitaxel (PTX)-induced mechanical allodynia, von Frey paw withdrawal threshold", "assay_type": "in vivo, mouse", "conditions": "intrathecal 100 ng", "description": "(§3) Pain models and drug injection: Animal model of chemotherapy-induced peripheral neuropathy (CIPN) was induced by paclitaxel (Sigma-Aldrich (St. Louis, MO), T7191, diluted with sterile saline). A single injection of paclitaxel ([…]) was given by intraperitoneal injection. A single injection of paclitaxel may induce mechanical allodynia for 4-6 weeks (X. Luo et al., Macrophage Toll-like Receptor 9 Contributes to Chemotherapy-Induced Neuropathic Pain in Male Mice. J Neurosci 39, 6848-6864 (2019)). Animal model of […] neuropathy was induced by streptozotocin (STZ, Sigma-Aldrich (St. Louis, MO), S0130, diluted with sterile saline). A single injection of STZ (75 mg/kg) was given as previously described (N. C. Brigham et al., Controlled release of etoricoxib from poly(ester urea) films for post-operative pain management. J Control Release 329, 316-327 (2021)). For intrathecal (i.t.) injection of MaR1, a spinal cord puncture was made by a Hamilton micro-syringe (Hamilton, Reno, NV) with a 30-gauge needle between the L5 and L6 levels to deliver reagents (5 μl) to the cerebral spinal fluid (J. L. Hylden, G. L. Wilcox, Intrathecal morphine in mice: a new technique. Eur. J Pharmacol. 67, 313-316 (1980)).\n(§4) Nociceptive behavior tests: Gpr37l1^+/+, Gpr37l1^+/−, or Gpr37l1^−/− mice were habituated to the testing environment for at least two days before the baseline testing. All the animal behaviors were tested blindly. Thermal and mechanical sensitivity was tested before and after the injection of paclitaxel (PTX, 6 mg/kg, IP) and streptozotocin (STZ, 75 mg/kg, IP). MaR1 was intrathecally injected 3 days after the STZ and PTX injection. […] The 50% paw withdrawal threshold was measured by Dixon's up-down method (W. J. Dixon, Efficient analysis of experimental observations. Annu Rev Pharmacol Toxicol 20, 441-462 (1980)). Thermal sensitivity was measured using a Hargreaves radiant heat apparatus (IITC Life Science, Woodland Hills, CA) (K. Hargreaves, et al., A new and sensitive method for measuring thermal nociception in cutaneous hyperalgesia. Pain 32, 77-88 (1988)). […]"}, "[4]": {"test_system": "STZ-induced mechanical allodynia in mice", "assay": "Streptozotocin (STZ)-induced mechanical allodynia, von Frey paw withdrawal threshold", "assay_type": "in vivo, mouse", "conditions": "intrathecal 100 ng", "description": "as §3, §4"}}}
{"compound": "CC/C=C\\C/C=C\\C[C@H](O)\\C=C/C=C/C=C/[C@H](O)C/C=C\\CCC(=O)O", "note": "[MaR1, Maresin 1]", "values": [{"measurement": "binding spot in lipid overlay assay", "setting": "GPR37L1 [1]", "result": "specific binding spot was observed"}, {"measurement": "binding spot in lipid overlay assay", "setting": "GPR37L1 [2]", "result": "completely absent"}, {"measurement": "effect on PTX-induced mechanical allodynia", "setting": "[3]; Gpr37l1+/+ WT mice, 3 days after PTX", "result": "reversed PTX-induced mechanical allodynia in all the mice"}, {"measurement": "effect on PTX-induced mechanical allodynia", "setting": "[3]; Gpr37l1+/− mice", "result": "significantly reversed the mechanical allodynia in a majority"}, {"measurement": "effect on PTX-induced mechanical allodynia", "setting": "[3]; Gpr37l1−/− mice", "result": "no significant effects"}, {"measurement": "effect on STZ-induced mechanical allodynia", "setting": "[4]; Gpr37l1+/+ WT mice, 3 days after STZ", "result": "reversed STZ-induced mechanical allodynia in all the mice"}, {"measurement": "effect on STZ-induced mechanical allodynia", "setting": "[4]; Gpr37l1+/− mice", "result": "significantly reversed the mechanical allodynia in the majority"}, {"measurement": "effect on STZ-induced mechanical allodynia", "setting": "[4]; Gpr37l1−/− mice", "result": "no significant effects"}]}
